Literature values as cited in paper PMC10093509, “Diagnosis and Treatment of Peripheral and Cranial Nerve Tumors with Expert Recommendations: An EUropean Network for RAre CANcers (EURACAN) Initiative” (Cancers, 2023).
Like-named read-outs stand apart in the source and are kept apart here. Blank lines part the entries; values can stand above or below the molecule they belong to. *1 amine or outer side, *2 acyl side, *3 side chain or, on linkers, in order; H or OH if unused. Where a SMILES comes first, the peptide text is derived from it. Bridges are numbered along the chain shown (N, C = ends). Roman numbers before positions name the chains, in order. [ ]: non-standard residue; d: D form. Actinocin(9to1) = Cc1c2oc3c(C)ccc(C(=O)[*:1])c3nc-2c(C(=O)[*:2])c(N)c1=O; NMeV = CN[C@H](C(=O)O)C(C)C; Sar = CNCC(=O)O

Tests used:
[1] = tested on: progressive or symptomatic inoperable PNs
[2] = tested on: progressive and/or symptomatic PNs; parameters: method as in PMID 33507822
MPNST [3] = tested on: MPNST; parameters: method as in PMID 27502708
[4] = tested on: NF1 PNs, progressive or causing significant neurological symptoms
MPNST [5] = tested on: MPNST; parameters: method as in PMID 20838322; settings: alone or in combination
MPNST [6] = tested on: MPNST; parameters: method as in PMID 26710211; settings: 14 MPNST patients
MPNST [7] = tested on: MPNST; parameters: method as in PMID 24618336
[8] = tested on: MPNST harboring a novel SNRNP70-NTRK3 fusion gene
MPNST [9] = tested on: MPNST; parameters: method as in doi:10.1200/jco.2006.24.18_suppl.9518
[10] = tested on: plexiform neurofibromas (PN) of neurofibromatosis; parameters: method as in PMID 23099009, PMID 24500418, PMID 24753394, PMID 24851266, PMID 25314964; settings: initial studies
MPNST [11] = tested on: MPNST; parameters: method as in PMID 19451433; settings: seven MPNST patients
advanced MPNST = tested on: advanced MPNST; parameters: method as in PMID 32638374
[12] = tested on: unresectable or metastatic MPNST; parameters: method as in PMID 33512749; settings: one patient with NF1-associated MPNST; selinexor alone
[13] = tested on: unresectable, symptomatic, and progressive PNs; settings: adults
asymptomatic PNs = tested on: asymptomatic PNs; parameters: method as in PMID 35467749; settings: median 41 cycles (2–67)
NF1 inoperable PNs [14] = tested on: NF1 inoperable PNs
NF1 inoperable PNs [15] = tested on: NF1 inoperable PNs; parameters: method as in PMID 28029918
spinal PNs = tested on: spinal PNs; parameters: method as in PMID 35467749, PMID 32939452
MPNST [16] = tested on: MPNST; parameters: method as in PMID 19451436; settings: 15 patients
[17] = tested on: NF-1-associated PNs or low-grade gliomas; parameters: method as in PMID 36015104; settings: meta-analysis
NF-1-associated PN = tested on: NF-1-associated PN; parameters: method as in doi:10.1200/JCO.2018.36.15_suppl.10504
[18] = tested on: progressive vestibular schwannomas (VS) associated with NF2; parameters: method as in PMID 26976425; settings: 7.5 mg/kg every 3 weeks
[19] = tested on: progressive VS associated with NF2; parameters: method as in PMID 22805104
NF1-associated MPNST = tested on: NF1-associated MPNST; parameters: method as in PMID 35100687; settings: one patient
[20] = tested on: sporadic metastatic MPNST; parameters: method as in PMID 31383651; settings: one patient; following four cycles

Molecule: COc1cc2nccc(Oc3ccc(NC(=O)C4(C(=O)Nc5ccc(F)cc5)CC4)cc3)c2cc1OC [Cabozantinib]
patients who experienced grade 3 adverse events [1]: 38% | quality of life [1]: no significant improvement | ORR ([1]; NF-105): 42% | intensity of pain ([1]; after four cycles, patients who achieved a PR): early decrease | tumor volume reduction ([1]; from 2.8% to −38.0%): 15%

Molecule: O=C(NOC[C@H](O)CO)c1ccc(F)c(F)c1Nc1ccc(I)cc1F [Mirdametinib]
median reduction in tumor volume [2]: 17.1% | most frequent AEs [2]: acneiform rash, fatigue, and nausea | patient-reported outcomes over treatment [2]: improvement

Molecule: COc1cc(Nc2ncc3c(n2)-c2ccc(Cl)cc2C(c2c(F)cccc2OC)=NC3)ccc1C(=O)O [alisertib]
OS (MPNST [3]): 69 weeks | PFS (MPNST [3]): 13 weeks

discontinuation of treatment (patients) [4]: 2 patients
Molecule: Cn1cnc2c(F)c(Nc3ccc(Br)cc3F)c(C(=O)NOCCO)cc21 [binimetinib]
dose reduction required for grade 3 adverse events (patients) [4]: 13 patients | PR ([4]; 14 out of 19 patients): 73.7%

Molecule: N.N.O=C([O-])C1(C(=O)[O-])CCC1.[Pt+2] [carboplatin]
results in treatment of MPNST (MPNST [5]): disappointing results

Molecule: N.N.[Cl][Pt][Cl] [cisplatin]
results in treatment of MPNST (MPNST [5]): disappointing results

Molecule: O=P1(N(CCCl)CCCl)NCCCO1 (stereo not shown) [cyclophosphamide]
results in treatment of MPNST (MPNST [5]): disappointing results

Molecule: Cc1c2oc3c(C)ccc(C(=O)N[C@@H]4C(=O)N[C@H](C(C)C)C(=O)N5CCC[C@H]5C(=O)N(C)CC(=O)N(C)[C@@H](C(C)C)C(=O)O[C@@H]4C)c3nc-2c(C(=O)N[C@@H]2C(=O)N[C@H](C(C)C)C(=O)N3CCC[C@H]3C(=O)N(C)CC(=O)N(C)[C@@H](C(C)C)C(=O)O[C@@H]2C)c(N)c1=O [dactinomycin] (I: T[dV]P[Sar][NMeV] / II: T[dV]P[Sar][NMeV]; ester I:1-I:C, II:1-II:C; linker I:N-II:N via Actinocin(9to1))
results in treatment of MPNST (MPNST [5]): disappointing results

Molecule: Cc1nc(Nc2ncc(C(=O)Nc3c(C)cccc3Cl)s2)cc(N2CCN(CCO)CC2)n1 [dasatinib]
ORR (MPNST [6]): did not show any ORR

Molecule: COc1cccc2c1C(=O)c1c(O)c3c(c(O)c1C2=O)C[C@@](O)(C(=O)CO)C[C@@H]3O[C@H]1C[C@H](N)[C@H](O)[C@H](C)O1 [doxorubicin]
median OS (MPNST [7]): 51 weeks | median PFS (MPNST [7]): 16 weeks

Molecule: CN1CCN(c2ccc(C(=O)Nc3n[nH]c4ccc(Cc5cc(F)cc(F)c5)cc34)c(NC3CCOCC3)c2)CC1 [entrectinib]
response ([8]; one heavily pretreated patient): dramatic response | duration of response ([8]; one patient): 10 months

Molecule: C#Cc1cccc(Nc2ncnc3cc(OCCOC)c(OCCOC)cc23)c1 [erlotinib]
OS (MPNST [9]): 48 weeks | PFS (MPNST [9]): 24 weeks

Molecule: CO[C@H]1C[C@@H]2CC[C@@H](C)[C@@](O)(O2)C(=O)C(=O)N2CCCC[C@H]2C(=O)O[C@H]([C@H](C)C[C@@H]2CC[C@@H](OCCO)[C@H](OC)C2)CC(=O)[C@H](C)/C=C(\C)[C@@H](O)[C@@H](OC)C(=O)[C@H](C)C[C@H](C)/C=C/C=C/C=C/1C [everolimus]
benefit in PN [10]: limited benefits

Molecule: Cc1ccc(NC(=O)c2ccc(CN3CCN(C)CC3)cc2)cc1Nc1nccc(-c2cccnc2)n1 [imatinib]
benefit in PN [10]: limited benefits | best response (MPNST [11]): stable disease as the best response in one patient | median PFS (MPNST [11]): 1.9 months

Molecule: c1c[nH]cn1 [imidazole]
results in treatment of MPNST (MPNST [5]): disappointing results

Molecule: Cc1ccc(Nc2nccc(N(C)c3ccc4c(C)n(C)nc4c3)n2)cc1S(N)(=O)=O [pazopanib]
OS (advanced MPNST): 10.6 months | PFS (advanced MPNST): 5.4 months | clinical benefit rate (advanced MPNST; at 12 weeks): 50%

Molecule: Cc1ccc(=O)n(-c2ccccc2)c1 [pirfenidone]
benefit in PN [10]: limited benefits

Molecule: O=C(/C=C\n1cnc(-c2cc(C(F)(F)F)cc(C(F)(F)F)c2)n1)NNc1cnccn1 [selinexor]
duration of disease stabilization [12]: 13.5 months

increased liver enzymes (patients) [13]: five | pancreatic enzyme elevation (patients) [13]: one | rash (patients) [13]: one
Molecule: Cn1cnc2c(F)c(Nc3ccc(Br)cc3Cl)c(C(=O)NOCCO)cc21 [selumetinib]
pain intensity [13]: decreased pain intensity | ORR ([13]; phase 2): 69% | tumor volume shrinkage as best response ([13]; phase 2): 22% | patients achieving tumor shrinkage (asymptomatic PNs): 72% | clinically meaningful improvement in child-reported interference of pain in daily functioning (NF1 inoperable PNs [14]; SPRINT): 38% | clinically meaningful improvement in overall health-related QoL (NF1 inoperable PNs [14]; SPRINT): 48% | median reduction in tumor volume (NF1 inoperable PNs [14]; SPRINT): 27% | ORR (NF1 inoperable PNs [14]; SPRINT, 50 patients): 68% | median progression-free survival (PFS) (NF1 inoperable PNs [14]; at the time of interim-analysis): not reached | toxicity (NF1 inoperable PNs [14]; children, creatine kinase increase, rash, paronychia, gastrointestinal toxicity): mostly mild and reversible | median reduction in tumor volume (NF1 inoperable PNs [15]; phase 1): 31% | stable disease (patients) (NF1 inoperable PNs [15]; phase 1): 2 | objective response rate (ORR) (NF1 inoperable PNs [15]; phase 1, 3–18 years): 71% | median time PR maintained (NF1 inoperable PNs [15]; range 6–42): 23 cycles | clinical benefit and radiological response with reduction of spinal canal distortion and/or spinal cord deformity (patients) (spinal PNs): 18/24

Molecule: CO[C@H]1C[C@@H]2CC[C@@H](C)[C@@](O)(O2)C(=O)C(=O)N2CCCC[C@H]2C(=O)O[C@H]([C@H](C)C[C@@H]2CC[C@@H](O)[C@H](OC)C2)CC(=O)[C@H](C)/C=C(\C)[C@@H](O)[C@@H](OC)C(=O)[C@H](C)C[C@H](C)/C=C/C=C/C=C/1C [sirolimus]
benefit in PN [10]: limited benefits

Molecule: CNC(=O)c1cc(Oc2ccc(NC(=O)Nc3ccc(Cl)c(C(F)(F)F)c3)cc2)ccn1 [sorafenib]
radiological responses (MPNST [16]): absence of radiological responses

Molecule: Cn1cncc1[C@@](N)(c1ccc(Cl)cc1)c1ccc2c(c1)c(-c1cccc(Cl)c1)cc(=O)n2C [tipifarnib]
benefit in PN [10]: limited benefits

Molecule: CC(=O)Nc1cccc(-n2c(=O)n(C3CC3)c(=O)c3c(Nc4ccc(I)cc4F)n(C)c(=O)c(C)c32)c1 [trametinib]
ORR [17]: 45.3% | disease control rate [17]: 99.8% | duration of radiological response (NF-1-associated PN): more than 12 months | PR (NF-1-associated PN; 12 out of 26 patients, interim analysis): 46% | side effects (NF-1-associated PN; such as paronychia and rash): manageable

Molecule: CC[C@]1(O)C[C@H]2CN(CCc3c([nH]c4ccccc34)[C@@](C(=O)OC)(c3cc4c(cc3OC)N(C=O)[C@H]3[C@@](O)(C(=O)OC)[C@H](OC(C)=O)[C@]5(CC)C=CCN6CC[C@]43[C@@H]65)C2)C1 [vincristine]
results in treatment of MPNST (MPNST [5]): disappointing results

Molecule: bevacizumab
partial radiographic response with volume reduction of 20% or more (patients) ([18]; 6/14 patients): 43% | hearing improvement (patients) ([18]; NF2 patients with progressive VS): 36% | hearing and radiographic outcome [19]: remarkable improvement of hearing and objective radiographic responses

Molecule: interferon alfa-2b
benefit in PN [10]: limited benefits

Molecule: nivolumab
response (NF1-associated MPNST): prolonged PR

Molecule: pembrolizumab
response [20]: complete response
